Experimental data reported in US8338450B2, “Compounds as dipeptidyl peptidase IV (DPP IV) inhibitors” (Lupin Limited, priority 2007, dated 2012).
Structures can show the parent of a compound that is named as a salt.

target: T1, human recombinant DPP-IV (Homo sapiens, UniProt P27487); test: Inhibition of human recombinant DPP-IV (Gly-Pro-AMC hydrolysis, fluorometric); type: biochemical; conditions: compound 10 nM; relative to vehicle controls
T1 construct: purchased R&D Systems, USA (or produced in-house)
Procedure: Inhibition of Human Recombinant DPP-IV
The proteolytic activity of human recombinant DPP-IV was determined by following the hydrolysis of Gly-Pro-7-amino-4-methylcoumarin (Gly-Pro-AMC) and the fluorometric quantitation of the liberated AMC. Assays were routinely carried out in 96-well flat-bottom black microwell plates. The reaction mixture (100 μl) contained 10 ng of human recombinant DPP-IV enzyme (produced in-house or procured from R&D Systems, USA) in the assay buffer (25 mM Tris-HCl, pH 7.4, 140 mM NaCl, 10 mM KCl and 0.1 mg/ml BSA) and 50 μM Gly-Pro-AMC. After incubation of assay plates at 30° C. for 30 min, the hydrolysis of Gly-Pro-AMC was monitored in a fluorescence microplate reader (Molecular Devices SpectraMax M5), with excitation and emission wavelengths set at 360 nm and 460 nm, respectively.
The inhibition of DPP-IV activity by test compounds was routinely performed by preincubating the enzyme with test compound (10 and 100 nM for primary screening and 8 concentrations from 0.1 to 1000 nM for the dose-response study) or vehicle (0.01% DMSO) for 15 min at 30° C., in a total volume of 90 μl. Test compounds were dissolved in DMSO at a concentration of 10 mM and serially diluted further in assay buffer. The enzyme reaction was initiated by the addition of Gly-Pro-AMC, followed by incubation of assay plates for 30 min at 30° C. and the liberated AMC was measured as described above. A known inhibitor of DPP-IV (positive control) was always included in the assay. Test compounds at various concentrations were always evaluated in duplicate, along with substrate blanks, vehicle controls and positive controls.
The results are expressed as percent inhibition of the enzyme activity relative to vehicle controls. Dose-response studies were conducted for those compounds exerting ≧50% inhibition of activity at 10 nM in primary screening. IC50, defined as the inhibitor concentration which caused a 50% decrease of the activity under assay conditions, was computed using GraphPad Prism software, version 5.0.
The DPP-IV inhibition data (expressed either as IC50 in nanomolar or percent inhibition at a particular compound concentration) is presented in Table 1.

T1 sequence (P27487 whole entry): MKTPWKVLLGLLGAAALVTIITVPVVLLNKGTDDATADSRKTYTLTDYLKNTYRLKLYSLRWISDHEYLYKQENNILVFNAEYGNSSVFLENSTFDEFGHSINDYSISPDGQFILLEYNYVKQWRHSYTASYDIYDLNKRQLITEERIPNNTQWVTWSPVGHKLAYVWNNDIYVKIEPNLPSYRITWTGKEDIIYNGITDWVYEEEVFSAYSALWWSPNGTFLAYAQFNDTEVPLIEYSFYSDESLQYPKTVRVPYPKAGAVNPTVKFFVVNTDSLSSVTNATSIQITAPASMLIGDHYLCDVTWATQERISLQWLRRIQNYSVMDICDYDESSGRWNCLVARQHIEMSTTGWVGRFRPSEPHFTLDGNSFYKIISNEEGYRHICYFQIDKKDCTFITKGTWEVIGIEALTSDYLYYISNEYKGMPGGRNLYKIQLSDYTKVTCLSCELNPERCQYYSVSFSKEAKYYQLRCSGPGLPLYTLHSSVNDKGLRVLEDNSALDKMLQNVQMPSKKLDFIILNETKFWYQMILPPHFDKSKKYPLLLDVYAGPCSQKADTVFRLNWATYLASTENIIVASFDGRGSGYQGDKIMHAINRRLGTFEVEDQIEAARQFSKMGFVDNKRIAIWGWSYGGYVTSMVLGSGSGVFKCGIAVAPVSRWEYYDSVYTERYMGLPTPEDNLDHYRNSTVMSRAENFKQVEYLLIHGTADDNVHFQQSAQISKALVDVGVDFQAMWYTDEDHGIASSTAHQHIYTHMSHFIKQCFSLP

Compared with `N#C[C@@H]1C[C@@H]2C[C@@H]2N1C(=O)[C@@H](N)C1CC2CCC(C1)N2CCOCc1ccccc1.O=C(O)C(F)(F)F` (stereo partly drawn) [Compound 50, (1S,3S,5S)-2-{(2S)-2-Amino-2-[8-(benzyloxy-ethyl)-8-aza-bicyclo[3.2.1]oct-3-yl]-exo-ethanoyl}-2-azabicyclo[3.1.0]hexane-3-carbonitrile trifluoroacetic acid salt], `N#C[C@@H]1C[C@@H]2C[C@@H]2N1C(=O)[C@@H](N)C1CC2CCC(C1)N2Cc1ccncc1.O=C(O)C(F)(F)F` (stereo partly drawn) [Compound 55, (1S,3S,5S)-2-{(2S)-2-Amino-2-[8-(pyridin-4-yl-methyl)-8-aza-bicyclo[3.2.1]oct-3-yl]-exo-ethanoyl}-2-azabicyclo[3.1.0]hexane-3-carbonitrile trifluoroacetic acid salt] is higher in “% inhibition at 10 nM” value: 21% inhibition at 10 nM for the first, 45% inhibition at 10 nM for the second.

First: N#Cc1ccc(N2C3CCC2CC([C@H](N)C(=O)N2[C@H](C#N)C[C@@H]4C[C@@H]42)C3)cc1.O=C(O)C(F)(F)F (stereo partly drawn) [Compound 52, (1S,3S,5S)-2-{(2S)-2-Amino-2-[8-(4-cyano-phenyl)-8-aza-bicyclo[3.2.1]oct-3-yl]-exo-ethanoyl}-2-azabicyclo[3.1.0]hexane-3-carbonitrile trifluoro acetic acid salt]
Second: N#C[C@@H]1C[C@@H]2C[C@@H]2N1C(=O)[C@@H](N)C1CC2CCC(C1)N2C(=O)NS(=O)(=O)c1ccc(Cl)cc1.O=C(O)C(F)(F)F (stereo partly drawn) [Compound 61, (1S,3S,5S)-2-{(2S)-2-Amino-2-[8-(4-chlorophenylsulfonylcarbamoyl)-8-aza-bicyclo[3.2.1]oct-3-yl]-exo-ethanoyl}-2-azabicyclo[3.1.0]hexane-3-carbonitrile trifluoroacetic acid salt]
The “% inhibition at 10 nM” value of the first is higher: 25% inhibition at 10 nM for the first, 9% inhibition at 10 nM for the second.

Going from `N#C[C@@H]1C[C@@H]2C[C@@H]2N1C(=O)[C@@H](N)C1CC2CCC(C1)N2C(=O)C1CCCCC1.O=C(O)C(F)(F)F` (stereo partly drawn) [Compound 58, (1S,3S,5S)-2-{(2S)-2-Amino-2-[8-(cyclohexane-carbonyl)-8-aza-bicyclo[3.2.1]oct-3-yl]-exo-ethanoyl}-2-azabicyclo[3.1.0]hexane-3-carbonitrile trifluoroacetic acid salt] to `N#C[C@@H]1C[C@@H]2C[C@@H]2N1C(=O)[C@@H](N)C1CC2CCC(C1)N2C1CCCCC1.O=C(O)C(F)(F)F` (stereo partly drawn) [Compound 60, (1S,3S,5S)-2-{(2S)-2-Amino-2-(8-cyclohexyl-8-aza-bicyclo[3.2.1]oct-3-yl)-exo-ethanoyl}-2-azabicyclo[3.1.0]hexane-3-carbonitrile trifluoroacetic acid salt], the “% inhibition at 10 nM” value falls from 31% inhibition at 10 nM to 10% inhibition at 10 nM.

Compared with `CCC(CC)N1C2CCC1CC([C@H](N)C(=O)N1[C@H](C#N)C[C@@H]3C[C@@H]31)C2.O=C(O)C(F)(F)F` (stereo partly drawn) [Compound 59, (1S,3S,5S)-2-{(2S)-2-Amino-2-[8-(1-ethyl-propyl)-8-aza-bicyclo[3.2.1]oct-3-yl]-exo-ethanoyl}-2-azabicyclo[3.1.0]hexane-3-carbonitrile trifluoroacetic acid salt], `COc1ccccc1NC(=S)N1C2CCC1CC([C@H](N)C(=O)N1[C@H](C#N)C[C@@H]3C[C@@H]31)C2.O=C(O)C(F)(F)F` (stereo partly drawn) [Compound 68, (1S,3S,5S)-2-{(2S)-2-Amino-2-[8-(2-methoxyphenylthiocarbamoyl)-8-aza-bicyclo[3.2.1]oct-3-yl]-exo-ethanoyl}-2-azabicyclo[3.1.0]-hexane-3-carbonitrile trifluoroacetic acid salt] is lower in “% inhibition at 10 nM” value: 34% inhibition at 10 nM for the first, 16% inhibition at 10 nM for the second.

same assay, conditions: human recombinant DPP-IV, 50 μM Gly-Pro-AMC, 30 min at 30° C.

First: N#Cc1ccc(N2C3CCC2CC([C@H](N)C(=O)N2[C@H](C#N)C[C@@H]4C[C@@H]42)C3)nc1 (stereo partly drawn) [Compound 51, (1S,3S,5S)-2-{(2S)-2-Amino-2-[8-(5-cyanopyridine-2-yl)-8-aza-bicyclo[3.2.1]oct-3-yl]-exo-ethanoyl}-2-azabicyclo[3.1.0]hexane-3-carbonitrile trifluoroacetic acid salt]
Second: CS(=O)(=O)c1ccc(N2C3CCC2CC([C@H](N)C(=O)N2[C@H](C#N)C[C@@H]4C[C@@H]42)C3)cc1 (stereo partly drawn) [Compound 53, (1S,3S,5S)-2-{(2S)-2-Amino-2-[8-(4-methanesulfonylphenyl)-8-aza-bicyclo[3.2.1]oct-3-yl]-exo-ethanoyl}-2-azabicyclo[3.1.0]hexane-3-carbonitrile trifluoroacetic acid salt]
The IC50 of the first is 2.1-fold lower: 9.6 nM for the first, 19.7 nM for the second. The first is the more potent here.

First: N#C[C@@H]1C[C@@H]2C[C@@H]2N1C(=O)[C@@H](N)C1CC2CCC(C1)N2C(=O)Cc1ccncc1 (stereo partly drawn) [Compound 54, (1S,3S,5S)-2-{(2S)-2-Amino-2-[8-(2-pyridin-4-yl-acetyl)-8-aza-bicyclo[3.2.1]oct-3-yl]-exo-ethanoyl}-2-azabicyclo[3.1.0]hexane-3-carbonitrile di trifluoroacetic acid salt]
Second: C#C[C@H]1CC[C@@H](C#N)N1C(=O)[C@@H](N)C1CC2CCC(C1)N2C(=O)c1ccncc1 (stereo partly drawn) [Compound 64, (2S,5R)-1-{(2S)-2-Amino-2-[8-(pyridin-4-carbonyl)-8-aza-bicyclo[3.2.1]oct-3-yl]-exo-ethanoyl}-5-ethynyl-pyrrolidin-2-carbonitrile di trifluoro acetic acid salt]
The IC50 of the first is 3.3-fold lower: 3.3 nM for the first, 11 nM for the second.

Going from `CS(=O)(=O)N1C2CCC1CC([C@H](N)C(=O)N1[C@H](C#N)C[C@@H]3C[C@@H]31)C2` (stereo partly drawn) [Compound 56, (1S,3S,5S)-2-{(2S)-2-Amino-2-[8-(methanesulfonyl)-8-aza-bicyclo[3.2.1]oct-3-yl]-exo-ethanoyl}-2-azabicyclo[3.1.0]hexane-3-carbonitrile trifluoroacetic acid salt] to `N#C[C@@H]1C[C@@H]2C[C@@H]2N1C(=O)[C@@H](N)C1CC2CCC(C1)N2S(=O)(=O)c1cccs1` (stereo partly drawn) [Compound 57, (1S,3S,5S)-2-{(2S)-2-Amino-2-[8-(thiophene-2-sulfonyl)-8-aza-bicyclo[3.2.1]oct-3-yl]-exo-ethanoyl}-2-azabicyclo[3.1.0]hexane-3-carbonitrile trifluoroacetic acid salt], the IC50 rises from 4.14 nM to 8 nM (1.9-fold). The first is the more potent here.

Compared with `C#C[C@H]1CC[C@@H](C#N)N1C(=O)[C@@H](N)C1CC2CCC(C1)N2C(=O)c1ccc(C(F)(F)F)cc1` (stereo partly drawn) [Compound 63, (2S,5R)-1-{(2S)-2-Amino-2-[8-(4-trifluoromethyl-benzoyl)-8-aza-bicyclo[3.2.1]oct-3-yl]-exo-ethanoyl}-5-ethynyl-pyrrolidin-2-carbonitrile trifluoro acetic acid salt], `C#C[C@H]1CC[C@@H](C#N)N1C(=O)[C@@H](N)C1CC2CCC(C1)N2C(=O)c1ccncc1F` (stereo partly drawn) [Compound 65, (2S,5R)-1-{(2S)-2-Amino-2-[8-(3-fluoropyridin-4-carbonyl)-8-aza-bicyclo[3.2.1]oct-3-yl]-exo-ethanoyl}-5-ethynyl-pyrrolidin-2-carbonitrile trifluoroacetic acid salt] is 2.2-fold lower in IC50: 15.5 nM for the first, 7.1 nM for the second. The second is the more potent here.

same assay, conditions: read-out: % inhibition at 10 nM

With `N[C@H](C(=O)N1CC(F)C1)C1CC2CCC(C1)N2C(=O)c1ccncc1F` (stereo partly drawn) [Compound 62, {(2S)-2-Amino-2-[8-(3-fluoropyridine-4-carbonyl)-8-aza-bicyclo[3.2.1]-oct-3-yl]-exo-ethanoyl}-3-fluoroazetidine trifluoroacetic acid salt] the inhibition at 0.01 µM was 12%.
